Measured values from patent publication US20050282755A1, “Compositions having antimicrobial activity and uses thereof” (priority 2004, published 2005).
≈ marks a conversion by molar mass, not a printed value. Starred links: 1 amine or outer side, 2 acyl side, 3 side chain; linkers in the order of their positions; H or OH if unused. Non-standard residues stand in square brackets, D forms with d. Residues, ends and D or L forms follow the SMILES beside them. *: point of attachment. Ethylenediamine = C(CN[*:2])N[*:1]; Lauroyl = CCCCCCCCCCCC(=O)*; Decanoyl = CCCCCCCCCC(=O)*; Ahx = NCCCCCC(=O)O; βAla = NCCC(=O)O

How the values were obtained:
[1] = test system: Staphylococcus aureus ATCC 29213; test: MIC, NCCLS M7-A6 broth microdilution, cation-adjusted Mueller Hinton broth (Table 9, no superscript); format: cell-based; conditions: ATCC 29213
Procedure: (§1) Cation-adjusted Mueller Hinton broth was used in the broth microdilution method. In brief, a log-phase bacterial suspension was used to inoculate wells of a 96-well plate so that the final inoculum for each well contained 5×10^5 to 1×10^6 CFU/milliliter. […] Plates were incubated overnight at 37° C. The lowest concentration of peptide that contained no visible growth as evidenced by a lack of turbidity when compared to the control (no peptide) was determined as the MIC. Unless otherwise noted, MIC values listed in Table 9 utilized this method of MIC determination.

Salmonella dublin (Lane) = test: MIC, NCCLS M7-A6 broth microdilution (Table 9, no superscript); format: cell-based
Procedure: as §1

CSCC[C@H](NC(=O)[C@H](Cc1ccccc1)NC(=O)[C@H](CC(N)=O)NC(=O)[C@H](CCCNC(=N)N)NC(=O)[C@H](CO)NC(=O)[C@H](Cc1c[nH]c2ccccc12)NC(=O)[C@H](CC(=O)O)NC(=O)[C@H](CCCNC(=N)N)NC(=O)[C@H](Cc1c[nH]c2ccccc12)NC(=O)[C@H](CCCNC(=N)N)NC(=O)[C@H](CO)NC(=O)[C@H](CCCNC(=N)N)NC(=O)CNC(=O)[C@@H](NC(=O)[C@H](CCCNC(=N)N)NC(=O)[C@H](CO)NC(=O)[C@@H](NC(=O)[C@H](CCCNC(=N)N)NC(=O)[C@@H](NC(=O)[C@H](C)NC(=O)[C@H](C)NC(=O)[C@H](CCCCN)NC(=O)[C@H](CCCCN)NC(=O)[C@H](CCCCN)NC(=O)[C@H](CCCCN)NC(C)=O)[C@@H](C)O)C(C)C)[C@@H](C)O)C(=O)N[C@@H](CCCNC(=N)N)C(=O)N[C@@H](C)C(=O)N[C@@H](C)C(=O)N[C@@H](CCCCN)C(=O)N[C@@H](CCCCN)C(=O)N[C@@H](CCCCN)C(=O)N[C@@H](CCCCN)C(N)=O [Peptide 8] (Ac-KKKKAATRVSRTGRSRWRDWSRNFMRAAKKKK-NH2)
MIC S. aureus [1]: >64 µg/mL | MIC S. dublin (Salmonella dublin (Lane)): >64 µg/mL

CSCC[C@H](NC(=O)[C@H](Cc1ccccc1)NC(=O)[C@H](CC(N)=O)NC(=O)[C@H](CCCNC(=N)N)NC(=O)[C@H](CO)NC(=O)[C@H](Cc1c[nH]c2ccccc12)NC(=O)[C@H](CC(=O)O)NC(=O)[C@H](CCCNC(=N)N)NC(=O)[C@H](Cc1c[nH]c2ccccc12)NC(=O)[C@H](CCCNC(=N)N)NC(=O)[C@H](CO)NC(=O)[C@H](CCCNC(=N)N)NC(=O)CNC(=O)[C@@H](NC(=O)[C@H](CCCNC(=N)N)NC(=O)[C@H](CO)NC(=O)[C@@H](NC(=O)[C@H](CCCNC(=N)N)NC(=O)[C@@H](NC(C)=O)[C@@H](C)O)C(C)C)[C@@H](C)O)C(=O)N[C@@H](CCCNC(=N)N)C(=O)N[C@@H](C)C(=O)N[C@@H](C)C(=O)N[C@@H](CCCNC(=N)N)C(=O)N[C@@H](CCCNC(=N)N)C(=O)N[C@@H](CCCNC(=N)N)C(=O)N[C@@H](CCCNC(=N)N)C(N)=O [Peptide 9] (Ac-TRVSRTGRSRWRDWSRNFMRAARRRR-NH2)
MIC S. aureus [1]: >64 µg/mL | MIC S. dublin (Salmonella dublin (Lane)): >64 µg/mL

CSCC[C@H](NC(=O)[C@H](Cc1ccccc1)NC(=O)[C@H](CC(N)=O)NC(=O)[C@H](CCCNC(=N)N)NC(=O)[C@H](CO)NC(=O)[C@H](Cc1c[nH]c2ccccc12)NC(=O)[C@H](CC(=O)O)NC(=O)[C@H](CCCNC(=N)N)NC(=O)[C@H](Cc1c[nH]c2ccccc12)NC(=O)[C@H](CCCNC(=N)N)NC(=O)[C@H](CO)NC(=O)[C@H](CCCNC(=N)N)NC(=O)CNC(=O)[C@@H](NC(=O)[C@H](CCCNC(=N)N)NC(=O)[C@H](CO)NC(=O)[C@@H](NC(=O)[C@H](CCCNC(=N)N)NC(=O)[C@@H](NC(C)=O)[C@@H](C)O)C(C)C)[C@@H](C)O)C(=O)N[C@@H](CCCNC(=N)N)C(=O)N[C@@H](C)C(=O)N[C@@H](C)C(=O)N[C@@H](CCCNC(=N)N)C(=O)N[C@@H](CCCNC(=N)N)C(=O)N[C@@H](CCCNC(=N)N)C(=O)N[C@@H](CCCNC(=N)N)C(=O)N[C@@H](CCCNC(=N)N)C(N)=O [Peptide 10] (Ac-TRVSRTGRSRWRDWSRNFMRAARRRRR-NH2)
MIC S. aureus [1]: >64 µg/mL | MIC S. dublin (Salmonella dublin (Lane)): 64 µg/mL (≈ 17.9 µM)

CSCC[C@H](NC(=O)[C@H](Cc1ccccc1)NC(=O)[C@H](CC(N)=O)NC(=O)[C@H](CCCNC(=N)N)NC(=O)[C@H](CO)NC(=O)[C@H](Cc1c[nH]c2ccccc12)NC(=O)[C@H](CC(=O)O)NC(=O)[C@H](CCCNC(=N)N)NC(=O)[C@H](Cc1c[nH]c2ccccc12)NC(=O)[C@H](CCCNC(=N)N)NC(=O)[C@H](CO)NC(=O)[C@H](CCCNC(=N)N)NC(=O)CNC(=O)[C@@H](NC(=O)[C@H](CCCNC(=N)N)NC(=O)[C@H](CO)NC(=O)[C@@H](NC(=O)[C@H](CCCNC(=N)N)NC(=O)[C@@H](NC(C)=O)[C@@H](C)O)C(C)C)[C@@H](C)O)C(=O)N[C@@H](CCCNC(=N)N)C(=O)N[C@@H](C)C(=O)N[C@@H](C)C(=O)N[C@@H](CCCNC(=N)N)C(=O)N[C@@H](CCCNC(=N)N)C(=O)N[C@@H](CCCNC(=N)N)C(=O)N[C@@H](CCCNC(=N)N)C(=O)N[C@@H](CCCNC(=N)N)C(=O)N[C@@H](CCCNC(=N)N)C(N)=O [Peptide 11] (Ac-TRVSRTGRSRWRDWSRNFMRAARRRRRR-NH2)
MIC S. aureus [1]: 64 µg/mL (≈ 17.2 µM) | MIC S. dublin (Salmonella dublin (Lane)): 32 µg/mL (≈ 8.58 µM)

CSCC[C@H](NC(=O)[C@H](Cc1ccccc1)NC(=O)[C@H](CC(N)=O)NC(=O)[C@H](CCCNC(=N)N)NC(=O)[C@H](CO)NC(=O)[C@H](Cc1c[nH]c2ccccc12)NC(=O)[C@H](CC(=O)O)NC(=O)[C@H](CCCNC(=N)N)NC(=O)[C@H](Cc1c[nH]c2ccccc12)NC(=O)[C@H](CCCNC(=N)N)NC(=O)[C@H](CO)NC(=O)[C@H](CCCNC(=N)N)NC(=O)CNC(=O)[C@@H](NC(=O)[C@H](CCCNC(=N)N)NC(=O)[C@H](CO)NC(=O)[C@@H](NC(=O)[C@H](CCCNC(=N)N)NC(=O)[C@@H](NC(=O)CCN)[C@@H](C)O)C(C)C)[C@@H](C)O)C(=O)N[C@@H](CCCNC(=N)N)C(=O)N[C@@H](C)C(=O)N[C@@H](C)C(N)=O [Peptide 18] (H-[βAla]TRVSRTGRSRWRDWSRNFMRAA-NH2)
MIC S. aureus [1]: >64 µg/mL | MIC S. dublin (Salmonella dublin (Lane)): >64 µg/mL

CSCC[C@H](NC(=O)[C@H](Cc1ccccc1)NC(=O)[C@H](CC(N)=O)NC(=O)[C@H](CCCNC(=N)N)NC(=O)[C@H](CO)NC(=O)[C@H](Cc1c[nH]c2ccccc12)NC(=O)[C@H](CC(=O)O)NC(=O)[C@H](CCCNC(=N)N)NC(=O)[C@H](Cc1c[nH]c2ccccc12)NC(=O)[C@H](CCCNC(=N)N)NC(=O)[C@H](CO)NC(=O)[C@H](CCCNC(=N)N)NC(=O)CNC(=O)[C@@H](NC(=O)[C@H](CCCNC(=N)N)NC(=O)[C@H](CO)NC(=O)[C@@H](NC(=O)[C@H](CCCNC(=N)N)NC(=O)[C@@H](NC(C)=O)[C@@H](C)O)C(C)C)[C@@H](C)O)C(=O)N[C@@H](CCCNC(=N)N)C(=O)N[C@@H](CC(C)C)C(=O)N[C@@H](CC(C)C)C(N)=O [Peptide 19] (Ac-TRVSRTGRSRWRDWSRNFMRLL-NH2)
MIC S. aureus [1]: >64 µg/mL | MIC S. dublin (Salmonella dublin (Lane)): 32 µg/mL (≈ 11.1 µM)

CC[C@H](C)[C@H](NC(=O)[C@@H](NC(=O)[C@H](CC(C)C)NC(=O)[C@H](CO)NC(=O)[C@@H](NC(=O)[C@H](CCCNC(=N)N)NC(=O)[C@H](Cc1ccc(O)cc1)NC(=O)[C@H](CC(=O)O)NC(=O)[C@H](CCCNC(=N)N)NC(C)=O)[C@@H](C)O)[C@@H](C)O)C(=O)N[C@H](C(=O)N[C@@H](CCC(N)=O)C(=O)N[C@@H](CCCCN)C(=O)NCCCCCC(=O)N[C@H](C(=O)N[C@@H](CCCNC(=N)N)C(=O)N[C@H](C(=O)N[C@@H](CO)C(=O)N[C@@H](CCCNC(=N)N)C(=O)N[C@H](C(=O)NCC(=O)N[C@@H](CCCNC(=N)N)C(=O)N[C@@H](CO)C(=O)N[C@@H](CCCNC(=N)N)C(=O)N[C@@H](Cc1c[nH]c2ccccc12)C(=O)N[C@@H](CCCNC(=N)N)C(=O)N[C@@H](CC(=O)O)C(=O)N[C@@H](Cc1c[nH]c2ccccc12)C(=O)N[C@@H](CO)C(=O)N[C@@H](CCCNC(=N)N)C(=O)N[C@@H](CC(N)=O)C(=O)N[C@@H](Cc1ccccc1)C(=O)N[C@@H](CCSC)C(=O)N[C@@H](CCCNC(=N)N)C(N)=O)[C@@H](C)O)C(C)C)[C@@H](C)O)C(C)C [Peptide 28, Ac-RDYRTSLTIVQKXTRVSRTGRSRWRDWSRNFMR-NH2 X = aminohexanoic acid] (Ac-RDYRTSLTIVQK[Ahx]TRVSRTGRSRWRDWSRNFMR-NH2)
MIC S. aureus [1]: >64 µg/mL | MIC S. dublin (Salmonella dublin (Lane)): >64 µg/mL

CCCCCCCCCCCC(=O)N[C@@H](CCCNC(=N)N)C(=O)N[C@@H](CC(=O)O)C(=O)N[C@H](C(=O)N[C@@H](C)C(=O)N[C@@H](CCCNC(=N)N)C(=O)N[C@@H](CC(N)=O)C(=O)N[C@@H](Cc1ccccc1)C(N)=O)C(C)C [Peptide 107, Lauryl-RDVARNF-NH2] (Lauroyl-RDVARNF-NH2)
MIC S. aureus [1]: >64 µg/mL | MIC S. dublin (Salmonella dublin (Lane)): >64 µg/mL

CCCCCCCCCCCC(=O)N[C@@H](CO)C(=O)N[C@@H](CCCNC(=N)N)C(=O)N[C@@H](Cc1c[nH]c2ccccc12)C(=O)N[C@@H](CCCNC(=N)N)C(=O)N[C@@H](CC(=O)O)C(=O)N[C@H](C(=O)N[C@@H](C)C(=O)N[C@@H](CCCNC(=N)N)C(=O)N[C@@H](CC(N)=O)C(=O)N[C@@H](Cc1ccccc1)C(=O)N[C@@H](CCSC)C(=O)N[C@@H](CCCNC(=N)N)C(N)=O)C(C)C [Peptide 114, Lauryl-SRWRDVARNFMR-NH2] (Lauroyl-SRWRDVARNFMR-NH2)
MIC S. aureus [1]: 4 µg/mL (≈ 2.25 µM) | MIC S. dublin (Salmonella dublin (Lane)): 4 µg/mL (≈ 2.25 µM)

CCCCCCCCCC(=O)NCCNC(=O)[C@H](CCCNC(=N)N)NC(=O)[C@H](CC(C)C)NC(=O)[C@H](Cc1ccccc1)NC(=O)[C@H](CC(N)=O)NC(=O)[C@H](CCCNC(=N)N)NC(=O)[C@H](C)NC(=O)[C@@H](NC(=O)[C@H](CC(=O)O)NC(=O)[C@H](CCCNC(=N)N)NC(=O)[C@H](Cc1c[nH]c2ccccc12)NC(=O)[C@H](CCCNC(=N)N)NC(=O)[C@H](CO)NC(=O)[C@@H](N)CCCNC(=N)N)C(C)C [Peptide 170, H2N-RSRWRDVARNFLR-Ethylamidodecanyl] (H-RSRWRDVARNFLR-{Ethylenediamine-Decanoyl}; C-terminus assumed)
MIC S. aureus [1]: 2 µg/mL (≈ 1.04 µM) | MIC S. dublin (Salmonella dublin (Lane)): 2 µg/mL (≈ 1.04 µM)

CCCCCCCCCCCC(=O)NCCNC(=O)[C@H](CCCNC(=N)N)NC(=O)[C@H](CC(C)C)NC(=O)[C@H](Cc1ccccc1)NC(=O)[C@H](CC(N)=O)NC(=O)[C@H](CCCNC(=N)N)NC(=O)[C@H](C)NC(=O)[C@@H](NC(=O)[C@H](CC(=O)O)NC(=O)[C@H](CCCNC(=N)N)NC(=O)[C@H](Cc1c[nH]c2ccccc12)NC(=O)[C@H](CCCNC(=N)N)NC(=O)[C@H](CO)NC(=O)[C@@H](N)CCCNC(=N)N)C(C)C [Peptide 171, H2N-RSRWRDVARNFLR-Ethylamidolauryl] (H-RSRWRDVARNFLR-{Ethylenediamine-Lauroyl}; C-terminus assumed)
MIC S. aureus [1]: 8 µg/mL (≈ 4.09 µM) | MIC S. dublin (Salmonella dublin (Lane)): 8 µg/mL (≈ 4.09 µM)
